Values of other authors as cited in patent publication US8623418B2, “Pharmaceutical composition” (Alpharma Pharmaceuticals LLC, priority 2007, dated 2014).

Settings: in vivo

O=C1CC[C@@]2(O)[C@H]3Cc4ccc(O)c5c4[C@@]2(CCN3CC2CC2)[C@H]1O5 [naltrexone]
parent drug and metabolites excreted by the kidney: 53-79 % of the dose
